Results from patent US9211310B2, “Use of a Chinese medicine composition in preparing medicaments for treating secondary prevention of myocardial infarction” (TASLY PHARMACEUTICAL GROUP CO., LTD, priority 2010, dated 2015).

Test system: patients after acute myocardial infarction
Assay: Life quality, Seattle Angina Questionnaire (SAQ), same clinical trial
Type: in vivo, human
Settings: 3 months after treatment
Text: 3508 patients who were in accordance with the diagnostic standards of AMI for 28 days to 2 years and differentiated as Qi deficiency and blood stagnation syndrome by TCM were studied. 0.5 g Chinese medicine composition prepared by the method of EXAMPLE 1 (Coded as QSYQ) was administrated half an hour after meal, 3 times per day.
There were 19 questions in the Seattle angina questionnaire (SAQ), including 5 parts: physical limitation (PL), anginal stability (AS), anginal frequency (AF), treatment satisfaction (TS) and disease perception (DP). After being given necessary explanation by doctors, the questions were answered independently by patients.
They included the overall survival time, angina pectoris score, TCM symptom score and life quality score, where angina pectoris score, TCM symptom score and life quality score were evaluated at randomization, in 1st, 3rd, 6th, 9th, 12th month after treatment and 18th month after follow-up.
All evaluation results of SAQ were described during the period of observation, and Wilcoxon rank sum test was used for inter-group comparison.
The evaluation results in the SAQ were depicted in different observations, and inter-group comparison was tested by Wilcoxon Rank-sum test.

## CC(=O)Oc1ccccc1C(=O)O [Control group, aspirine]
FAS
  SAQ 3rd question: <1 time per week, % of cases: (21.15%)
  SAQ 3rd question: <1 time per week, cases: 368
  SAQ 3rd question: No onset, % of cases: (0.00%)
  SAQ 3rd question: No onset, cases: 0
  SAQ 3rd question: ≧3 times per week, % of cases: (42.13%)
  SAQ 3rd question: ≧3 times per week, cases: 733
  SAQ 3rd question: ≧4 times per day, % of cases: (0.92%)
  SAQ 3rd question: ≧4 times per day, cases: 16
  SAQ Question 1-3: Mildly limited, number of patients: 93
  SAQ Question 1-3: Mildly limited, percent of patients: (5.33%)
  SAQ Question 1-3: Moderately limited, number of patients: 23
  SAQ Question 1-3: Moderately limited, percent of patients: (1.32%)
  SAQ Question 1-3: Not limited, number of patients: 1318
  SAQ Question 1-3: Not limited, percent of patients: (75.57%)
  SAQ Question 1-3: Other reason, number of patients: 9
  SAQ Question 1-3: Other reason, percent of patients: (0.52%)
  SAQ Question 1-3: Severely limited, number of patients: 5
  SAQ Question 1-3: Severely limited, percent of patients: (0.29%)
  SAQ Question 1-3: Slightly limited, number of patients: 296
  SAQ Question 1-3: Slightly limited, percent of patients: (16.97%)
  SAQ Question 1-4: Mildly limited, number of patients: 325
  SAQ Question 1-4: Mildly limited, percent of patients: (18.65%)
  SAQ Question 1-4: Moderately limited, number of patients: 120
  SAQ Question 1-4: Moderately limited, percent of patients: (6.88%)
  SAQ Question 1-4: Not limited, number of patients: 668
  SAQ Question 1-4: Not limited, percent of patients: (38.32%)
  SAQ Question 1-4: Other limited, number of patients: 12
  SAQ Question 1-4: Other limited, percent of patients: (0.69%)
  SAQ Question 1-4: Severely limited, number of patients: 29
  SAQ Question 1-4: Severely limited, percent of patients: (1.66%)
  SAQ Question 1-4: Slightly limited, number of patients: 589
  SAQ Question 1-4: Slightly limited, percent of patients: (33.79%)
  SAQ Question 1-5: Mildly limited, number of patients: 311
  SAQ Question 1-5: Mildly limited, percent of patients: (17.84%)
  SAQ Question 1-5: Moderately limited, number of patients: 162
  SAQ Question 1-5: Moderately limited, percent of patients: (9.29%)
  SAQ Question 1-5: Not limited, number of patients: 709
  SAQ Question 1-5: Not limited, percent of patients: (40.68%)
  SAQ Question 1-5: Other reasons, number of patients: 12
  SAQ Question 1-5: Other reasons, percent of patients: (0.69%)
  SAQ Question 1-5: Severely limited, number of patients: 21
  SAQ Question 1-5: Severely limited, percent of patients: (1.20%)
  SAQ Question 1-5: Slightly limited, number of patients: 528
  SAQ Question 1-5: Slightly limited, percent of patients: (30.29%)
  SAQ Question 1-9: Mildly limited, % of cases: (18.63%)
  SAQ Question 1-9: Mildly limited, cases: 318
  SAQ Question 1-9: Moderately limited, % of cases: (20.04%)
  SAQ Question 1-9: Moderately limited, cases: 342
  SAQ Question 1-9: Not limited, % of cases: (3.57%)
  SAQ Question 1-9: Not limited, cases: 61
  SAQ Question 1-9: Other reaons, % of cases: (5.98%)
  SAQ Question 1-9: Other reaons, cases: 102
  SAQ Question 1-9: Severely limited, % of cases: (38.90%)
  SAQ Question 1-9: Severely limited, cases: 664
  SAQ Question 1-9: Slightly limited, % of cases: (12.89%)
  SAQ Question 1-9: Slightly limited, cases: 220
PP
  SAQ 2nd question: Clearly increased, % of cases: (0.41%)
  SAQ 2nd question: Clearly increased, cases: 6
  SAQ 2nd question: Clearly reduced, % of cases: (22.01%)
  SAQ 2nd question: Clearly reduced, cases: 322
  SAQ 2nd question: Same, % of cases: (41.97%)
  SAQ 2nd question: Same, cases: 614
  SAQ 2nd question: Slightly increased, % of cases: (3.42%)
  SAQ 2nd question: Slightly increased, cases: 50
  SAQ 2nd question: Slightly reduced, % of cases: (32.19%)
  SAQ 2nd question: Slightly reduced, cases: 471
  SAQ 3rd question: 1-2 times per week, % of cases: (32.19%)
  SAQ 3rd question: 1-2 times per week, cases: 471
  SAQ 3rd question: 1-3 times per day, % of cases: (3.42%)
  SAQ 3rd question: 1-3 times per day, cases: 50
  SAQ 3rd question: <1 time per week, % of cases: (22.01%)
  SAQ 3rd question: <1 time per week, cases: 322
  SAQ 3rd question: No onset, % of cases: (0.00%)
  SAQ 3rd question: No onset, cases: 0
  SAQ 3rd question: ≧3 times per week, % of cases: (41.97%)
  SAQ 3rd question: ≧3 times per week, cases: 614
  SAQ 3rd question: ≧4 times per day, % of cases: (0.41%)
